What was measured:
[1] = molecular target: T1, Solute carrier family 22 member 12 (Homo sapiens, UniProt Q96S37); experiment: Inhibition of human URAT1 expressed in xenopus oocyte assessed as inhibition of [14C]-labelled urate uptake at 50 uM after 60 mins by liquid scintillation counting; conditions: 1 h
T1 sequence (Q96S37 whole entry): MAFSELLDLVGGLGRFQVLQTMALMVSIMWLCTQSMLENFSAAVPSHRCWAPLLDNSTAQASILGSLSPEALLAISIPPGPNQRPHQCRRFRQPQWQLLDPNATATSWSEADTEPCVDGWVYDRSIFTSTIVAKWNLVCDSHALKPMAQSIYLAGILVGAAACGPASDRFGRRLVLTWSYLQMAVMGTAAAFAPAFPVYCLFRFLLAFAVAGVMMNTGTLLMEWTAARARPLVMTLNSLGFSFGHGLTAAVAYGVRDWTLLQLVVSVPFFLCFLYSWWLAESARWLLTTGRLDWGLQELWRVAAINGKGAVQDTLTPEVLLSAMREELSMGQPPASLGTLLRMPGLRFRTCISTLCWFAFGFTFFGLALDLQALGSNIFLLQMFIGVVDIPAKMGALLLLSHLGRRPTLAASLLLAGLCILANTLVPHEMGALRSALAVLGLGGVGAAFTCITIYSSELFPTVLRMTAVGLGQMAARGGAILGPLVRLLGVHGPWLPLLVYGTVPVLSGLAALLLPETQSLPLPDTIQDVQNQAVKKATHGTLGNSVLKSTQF

[2] = molecular target: T1, Solute carrier family 22 member 12; experiment: Inhibition of human URAT1 expressed in xenopus oocyte assessed as inhibition of [14C]-labelled urate uptake after 60 mins by liquid scintillation counting

Structure (SMILES) | inhibition at 50 µM [1] | IC50 [2]
CCc1oc2cc(OC)ccc2c1C(=O)c1ccc(O)cc1 | 92.7% | –
CCc1cc2c(C(=O)c3ccc(O)cc3)c(O)ccc2o1 | 51.5% | –
CCc1oc2cc(Br)c(O)c(Br)c2c1C(=O)c1ccc(OC)cc1 | 76.5% | 23500 nM
CCc1oc2cc(O)ccc2c1C(=O)c1cc(Br)c(O)c(Br)c1 | 99.8% | –
CCc1oc2c(Br)c(O)c(Br)cc2c1C(=O)c1ccc(OC)cc1 | 99.8% | 667 nM
CCc1cc2cc(O)cc(C(=O)c3ccc(O)cc3)c2o1 | 41% | –
CCc1oc2ccccc2c1C(=O)c1ccc(O)cc1 [BENZARONE] | 90.8% | –
CCc1cc2cc(OC)cc(C(=O)c3ccc(OC)cc3)c2o1 | 5.2% | –
CCc1cc2c(C(=O)c3cc(Br)c(O)c(Br)c3)c(O)ccc2o1 | 99.9% | 83 nM
CCc1oc2ccc(O)cc2c1C(=O)c1ccc(OC)cc1 | 12.9% | –
CCCN(CCC)S(=O)(=O)c1ccc(C(=O)O)cc1 [PROBENECID] | 35.7% | –
CCc1oc2c(O)cccc2c1C(=O)c1ccc(OC)cc1 | 18.2% | –
CCc1cc2c(C(=O)c3ccc(OC)cc3)cc(O)cc2o1 | 12.4% | –
CCc1cc2cc(O)cc(C(=O)c3ccc(OC)cc3)c2o1 | 9.3% | –
CCc1oc2ccc(OC)cc2c1C(=O)c1cc(Br)c(O)c(Br)c1 | 99.9% | –
CCc1cc2c(C(=O)c3ccc(OC)cc3)ccc(OC)c2o1 | 7.4% | –
CCc1oc2ccccc2c1C(=O)c1ccc(OC)cc1 | 13.3% | –
CCc1cc2c(C(=O)c3ccc(OC)cc3)cc(Br)c(O)c2o1 | 99.3% | 772 nM
CCc1oc2cc(O)ccc2c1C(=O)c1ccc(O)cc1 | 92.1% | 1130 nM
CCc1cc2cc(OC)cc(C(=O)c3cc(Br)c(O)c(Br)c3)c2o1 | 99% | –
CCc1oc2c(OC)cccc2c1C(=O)c1ccc(OC)cc1 | 17.2% | –

Structure (SMILES) | inhibition at 50 µM [1] | IC50 [2]
CCc1cc2c(C(=O)c3ccc(O)cc3)c(OC)ccc2o1 | 88.2% | 6680 nM
CCc1cc2c(C(=O)c3ccc(OC)cc3)c(OC)ccc2o1 | 6.1% | –
CCc1cc2c(C(=O)c3cc(Br)c(O)c(Br)c3)cc(Br)c(O)c2o1 | 99.9% | 177 nM
CCc1cc2cc(OC)cc(C(=O)c3ccc(O)cc3)c2o1 | 60% | 33700 nM
CCc1oc2ccc(OC)cc2c1C(=O)c1ccc(O)cc1 | 92.7% | 2460 nM
CCc1cc2c(C(=O)c3ccc(OC)cc3)cc(OC)cc2o1 | 1.5% | –
CCc1oc2ccc(O)cc2c1C(=O)c1ccc(O)cc1 | 96.5% | 2490 nM
CCc1cc2c(C(=O)c3ccc(O)cc3)ccc(O)c2o1 | 93.8% | 3940 nM
CCc1cc2c(C(=O)c3cc(Br)c(O)c(Br)c3)c(OC)ccc2o1 | 99.6% | 358 nM
CCc1oc2ccccc2c1C(=O)c1cc(Br)c(O)c(Br)c1 [BENZBROMARONE] | 99.9% | –
CCc1oc2cc(OC)ccc2c1C(=O)c1cc(Br)c(O)c(Br)c1 | 99.9% | –
CCc1cc2c(C(=O)c3ccc(O)cc3)cc(OC)cc2o1 | 62.4% | 19700 nM
CCc1oc2ccc(O)cc2c1C(=O)c1cc(Br)c(O)c(Br)c1 | 99.9% | 189 nM
CCc1cc2c(C(=O)c3ccc(O)cc3)cc(O)cc2o1 | 41% | –
CCc1cc2c(C(=O)c3ccc(OC)cc3)ccc(O)c2o1 | 0.8% | –
CCc1oc2ccc(OC)cc2c1C(=O)c1ccc(OC)cc1 | 24.3% | –
CCc1oc2cc(O)ccc2c1C(=O)c1ccc(OC)cc1 | 48.3% | –
CCc1cc2c(C(=O)c3ccc(OC)cc3)c(O)ccc2o1 | 28.7% | –
CCc1oc2cc(OC)ccc2c1C(=O)c1ccc(OC)cc1 | 6.2% | –
CCc1cc2cc(O)cc(C(=O)c3cc(Br)c(O)c(Br)c3)c2o1 | 99.8% | –
